Source: PubChem BioAssay AID1963873 (Molecular Pharmacology Branch, DTP, NCI, 2024)

Test system: 276233-004-R-J1-PDC KRAS spheroids with HUVEC/MSC, viability
Assay: Anticancer human tumor 276233-004-R-J1-PDC patient-derived colon adenocarcinoma cell line growth inhibition [KRAS2]
Settings: for IC50: curve of first compound; for viability, T/C: stronger effect = lower value
In short: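 Combination screen of spheroid viability in tumor-cell co-cultures with endothelial (HUVEC) and mesenchymal stem cell stroma. Each agent was tested in half-log dilutions, topping at clinical Cmax or at 10 microM without a known Cmax.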

[1] = second compound 0.1 µM, first compound 0.0316 µM
[2] = second compound 0.1 µM, first compound 0.1 µM
[3] = second compound 0.316 µM, first compound 0.0316 µM
[4] = second compound 0.316 µM, first compound 0.1 µM
[5] = second compound 1 µM, first compound 0.0316 µM
[6] = second compound 1 µM, first compound 0.1 µM
[7] = second compound 3.16 µM, first compound 0.0316 µM
[8] = second compound 3.16 µM, first compound 0.1 µM
[9] = second compound 10 µM, first compound 0.0316 µM
[10] = second compound 10 µM, first compound 0.1 µM
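Note: cells exposed to agents for seven days before viability read.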
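Throughout, for viability, T/C: 100% = DMSO vehicle control wells and lower values mean fewer viable cells.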

Work on `CC(C)n1nc(-c2ccc3oc(N)nc3c2)c2c(N)ncnc21` + CC1OCC2(CCN(c3cnc(Sc4ccnc(N)c4Cl)c(N)n3)CC2)C1N yielded an IC50 (second compound 0.1 µM) of 0.0678 µM, an IC50 (second compound 0.316 µM) greater than 0.1 µM and an IC50 (second compound 1 µM) of 0.0489 µM. For the same molecule, the IC50 (second compound 3.16 µM) was 0.0121 µM, the IC50 (second compound 10 µM) was 0.00782 µM and the viability, T/C (second compound 0.1 µM, first compound 0.000316 µM) was 87.9%. It also gave a viability, T/C (second compound 0.1 µM, first compound 0.001 µM) of 104%, a viability, T/C (second compound 0.1 µM, first compound 0.00316 µM) of 71.9% and a viability, T/C (second compound 0.1 µM, first compound 0.01 µM) of 69.7%. The viability, T/C [1] was 54.1%, the viability, T/C [2] was 47.1% and the viability, T/C (second compound 0.316 µM, first compound 0.000316 µM) was 90.9%. The viability, T/C (second compound 0.316 µM, first compound 0.001 µM) was 81.7%, the viability, T/C (second compound 0.316 µM, first compound 0.00316 µM) was 67.5% and the viability, T/C (second compound 0.316 µM, first compound 0.01 µM) was 68.9%. For the same molecule, the viability, T/C [3] was 53.8%, the viability, T/C [4] was 57.5% and the viability, T/C (second compound 1 µM, first compound 0.000316 µM) was 80.9%. For the same molecule, the viability, T/C (second compound 1 µM, first compound 0.001 µM) was 68.1%, the viability, T/C (second compound 1 µM, first compound 0.00316 µM) was 77% and the viability, T/C (second compound 1 µM, first compound 0.01 µM) was 59.1%. The viability, T/C [5] was 52.5%, the viability, T/C [6] was 44.7% and the viability, T/C (second compound 3.16 µM, first compound 0.000316 µM) was 73.7%. It also gave a viability, T/C (second compound 3.16 µM, first compound 0.001 µM) of 74.5%, a viability, T/C (second compound 3.16 µM, first compound 0.00316 µM) of 51.6% and a viability, T/C (second compound 3.16 µM, first compound 0.01 µM) of 57.7%. The viability, T/C [7] was 40.3%, the viability, T/C [8] was 32.5% and the viability, T/C (second compound 10 µM, first compound 0.000316 µM) was 70.6%. It also gave a viability, T/C (second compound 10 µM, first compound 0.001 µM) of 66.8%, a viability, T/C (second compound 10 µM, first compound 0.00316 µM) of 64.4% and a viability, T/C (second compound 10 µM, first compound 0.01 µM) of 45.9%. For the same molecule, the viability, T/C [9] was 43.4% and the viability, T/C [10] was 40.1%.

`CC1(C)CCC(CN2CCN(c3ccc(C(=O)NS(=O)(=O)c4ccc(NCC5CCOCC5)c([N+](=O)[O-])c4)c(Oc4cnc5[nH]ccc5c4)c3)CC2)=C(c2ccc(Cl)cc2)C1` + CC1OCC2(CCN(c3cnc(Sc4ccnc(N)c4Cl)c(N)n3)CC2)C1N was tested, and the IC50 (second compound 0.1 µM) was greater than 10 µM, the IC50 (second compound 0.316 µM) was 5.97 µM and the IC50 (second compound 1 µM) was 3.18 µM. The IC50 (second compound 3.16 µM) was 2.57 µM, the IC50 (second compound 10 µM) was 3.2 µM and the viability, T/C [1] was 78.6%. It also gave a viability, T/C [2] of 91.9%, a viability, T/C (second compound 0.1 µM, first compound 0.316 µM) of 72.4% and a viability, T/C (second compound 0.1 µM, first compound 1 µM) of 116%. It also gave a viability, T/C (second compound 0.1 µM, first compound 3.16 µM) of 74.8%, a viability, T/C (second compound 0.1 µM, first compound 10 µM) of 54.9% and a viability, T/C [3] of 89.7%. It also gave a viability, T/C [4] of 77.9%, a viability, T/C (second compound 0.316 µM, first compound 0.316 µM) of 89.2% and a viability, T/C (second compound 0.316 µM, first compound 1 µM) of 81%. The viability, T/C (second compound 0.316 µM, first compound 3.16 µM) was 63.7%, the viability, T/C (second compound 0.316 µM, first compound 10 µM) was 39% and the viability, T/C [5] was 67.3%. It also gave a viability, T/C [6] of 75%, a viability, T/C (second compound 1 µM, first compound 0.316 µM) of 85.7% and a viability, T/C (second compound 1 µM, first compound 1 µM) of 62.3%. It also gave a viability, T/C (second compound 1 µM, first compound 3.16 µM) of 51.6%, a viability, T/C (second compound 1 µM, first compound 10 µM) of 27.2% and a viability, T/C [7] of 69.1%. For the same molecule, the viability, T/C [8] was 62.6%, the viability, T/C (second compound 3.16 µM, first compound 0.316 µM) was 77.5% and the viability, T/C (second compound 3.16 µM, first compound 1 µM) was 81.1%. The viability, T/C (second compound 3.16 µM, first compound 3.16 µM) was 45%, the viability, T/C (second compound 3.16 µM, first compound 10 µM) was 24.8% and the viability, T/C [9] was 60.1%. The viability, T/C [10] was 72%, the viability, T/C (second compound 10 µM, first compound 0.316 µM) was 65.8% and the viability, T/C (second compound 10 µM, first compound 1 µM) was 72.7%. It also gave a viability, T/C (second compound 10 µM, first compound 3.16 µM) of 50.4% and a viability, T/C (second compound 10 µM, first compound 10 µM) of 14.4%.
